Legend:
[1] = molecular target: T1, UDP-glucuronosyltransferase 1A1 (Homo sapiens, UniProt P22309); assay: Drug metabolism assessed as recombinat UGT1A1 (unknown origin) -mediated dextrophan-O-glucuronide formation; format: ADME
T1 sequence (P22309 whole entry): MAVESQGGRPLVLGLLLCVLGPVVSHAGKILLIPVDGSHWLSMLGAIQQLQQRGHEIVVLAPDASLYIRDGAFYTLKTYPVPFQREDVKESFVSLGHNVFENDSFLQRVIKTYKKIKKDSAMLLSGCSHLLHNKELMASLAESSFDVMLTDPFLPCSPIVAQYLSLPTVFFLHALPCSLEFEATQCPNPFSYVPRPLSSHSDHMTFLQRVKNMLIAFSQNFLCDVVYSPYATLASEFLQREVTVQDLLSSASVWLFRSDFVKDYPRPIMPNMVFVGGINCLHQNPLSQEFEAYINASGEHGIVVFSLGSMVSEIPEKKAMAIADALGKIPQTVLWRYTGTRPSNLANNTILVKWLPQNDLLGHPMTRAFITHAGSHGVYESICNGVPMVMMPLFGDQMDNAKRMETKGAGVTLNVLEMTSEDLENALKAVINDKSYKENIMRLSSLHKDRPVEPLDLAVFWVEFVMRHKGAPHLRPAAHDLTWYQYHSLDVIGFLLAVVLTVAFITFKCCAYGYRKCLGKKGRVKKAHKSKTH

[2] = molecular target: T2, UDP-glucuronosyltransferase 1A3 (Homo sapiens, UniProt P35503); assay: Drug metabolism assessed as recombinat UGT1A3 (unknown origin) -mediated dextrophan-O-glucuronide formation; format: ADME
T2 sequence (P35503 whole entry): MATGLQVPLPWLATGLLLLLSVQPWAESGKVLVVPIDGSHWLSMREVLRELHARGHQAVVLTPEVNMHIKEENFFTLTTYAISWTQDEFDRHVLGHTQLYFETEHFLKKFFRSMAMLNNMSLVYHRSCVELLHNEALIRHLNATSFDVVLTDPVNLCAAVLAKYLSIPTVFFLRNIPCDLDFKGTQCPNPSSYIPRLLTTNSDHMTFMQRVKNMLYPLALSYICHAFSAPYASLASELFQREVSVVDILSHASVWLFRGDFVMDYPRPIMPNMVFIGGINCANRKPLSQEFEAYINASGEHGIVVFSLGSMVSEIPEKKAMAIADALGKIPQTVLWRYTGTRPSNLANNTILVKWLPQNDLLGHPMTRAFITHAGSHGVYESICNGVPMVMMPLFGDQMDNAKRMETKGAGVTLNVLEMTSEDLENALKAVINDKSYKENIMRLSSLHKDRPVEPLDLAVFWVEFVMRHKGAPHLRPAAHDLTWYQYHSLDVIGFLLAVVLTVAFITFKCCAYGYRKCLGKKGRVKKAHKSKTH

[3] = molecular target: T3, UDP-glucuronosyltransferase 1A4 (Homo sapiens, UniProt P22310); assay: Drug metabolism assessed as recombinat UGT1A4 (unknown origin) -mediated dextrophan-O-glucuronide formation; format: ADME
T3 sequence (P22310 whole entry): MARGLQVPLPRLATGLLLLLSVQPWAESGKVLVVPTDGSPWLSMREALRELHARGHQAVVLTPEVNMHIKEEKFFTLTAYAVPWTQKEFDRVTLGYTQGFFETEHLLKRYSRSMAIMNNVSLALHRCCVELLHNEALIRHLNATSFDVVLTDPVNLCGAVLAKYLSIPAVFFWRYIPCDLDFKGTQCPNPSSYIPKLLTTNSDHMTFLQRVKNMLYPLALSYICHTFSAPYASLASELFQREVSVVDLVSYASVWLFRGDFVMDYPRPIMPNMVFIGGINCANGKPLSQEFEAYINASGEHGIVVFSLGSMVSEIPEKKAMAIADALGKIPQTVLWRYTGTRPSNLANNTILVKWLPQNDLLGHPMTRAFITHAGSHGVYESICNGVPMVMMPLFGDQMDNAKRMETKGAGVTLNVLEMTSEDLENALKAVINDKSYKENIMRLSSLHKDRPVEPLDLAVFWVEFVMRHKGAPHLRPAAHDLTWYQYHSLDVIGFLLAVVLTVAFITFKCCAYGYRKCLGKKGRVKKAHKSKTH

[4] = molecular target: T4, UDP-glucuronosyltransferase 1A6 (Homo sapiens, UniProt P19224); assay: Drug metabolism assessed as recombinat UGT1A6 (unknown origin) -mediated dextrophan-O-glucuronide formation; format: ADME
T4 sequence (P19224 whole entry): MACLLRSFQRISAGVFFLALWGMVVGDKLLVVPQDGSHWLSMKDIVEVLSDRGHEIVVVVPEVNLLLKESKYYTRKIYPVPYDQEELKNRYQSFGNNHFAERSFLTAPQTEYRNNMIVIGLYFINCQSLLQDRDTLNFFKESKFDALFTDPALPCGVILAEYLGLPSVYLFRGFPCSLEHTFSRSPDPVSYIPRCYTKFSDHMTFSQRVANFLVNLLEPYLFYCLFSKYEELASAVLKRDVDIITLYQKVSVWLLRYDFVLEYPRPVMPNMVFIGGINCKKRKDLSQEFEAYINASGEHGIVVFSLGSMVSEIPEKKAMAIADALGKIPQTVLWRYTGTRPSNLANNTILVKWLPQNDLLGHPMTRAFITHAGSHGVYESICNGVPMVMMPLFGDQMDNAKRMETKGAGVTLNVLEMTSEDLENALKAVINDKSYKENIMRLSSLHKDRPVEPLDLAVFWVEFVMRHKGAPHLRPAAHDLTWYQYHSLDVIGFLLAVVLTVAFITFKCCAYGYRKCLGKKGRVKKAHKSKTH

Liver microsome [5] = assay: Drug metabolism in human liver microsomes assessed as 3-hydroxymorphinan formation measured as intrinsic unbound clearance; format: ADME
Liver microsome [6] = assay: Drug metabolism in human liver microsomes assessed as 3-hydroxymorphinan formation measured as plasma fraction unbound; format: ADME, cell-free
Liver microsome [7] = assay: Drug metabolism in human liver microsomes assessed as dextrophan-O-glucuronide formation measured per mg of microsomal protein; format: ADME
Liver microsome [8] = assay: Drug metabolism in human liver microsomes assessed as dextrophan-O-glucuronide formation measured as microsomal fraction unbound; format: ADME
Liver microsome [9] = assay: Drug metabolism in human liver microsomes assessed as dextrophan-O-glucuronide formation in presence of 2% BSA; format: ADME
Liver microsome [10] = assay: Drug metabolism in human liver microsomes assessed as dextrophan-O-glucuronide formation measured as intrinsic clearance in presence of 2% BSA; format: ADME

For CN1CC[C@@]23CCCC[C@@H]2[C@@H]1Cc1ccc(O)cc13 [DEXTRORPHAN], the Drug metabolism [1] was “metabolite_not_detected”, the Drug metabolism [2] was “metabolite_not_detected” and the Drug metabolism [3] was “metabolite_not_detected”. The Drug metabolism [4] was “metabolite_not_detected”, the CL free (Liver microsome [5]) was 0.95 µL/min/mg and the Fu (Liver microsome [6]) was 0.55. It also gave a Vmax (Liver microsome [7]) of 2 nmol/min, a Fu (Liver microsome [8]) of 1 and a Km (Liver microsome [9]) of 210 µM. It also gave a CLH (Liver microsome [10]) of 11 µL/min/mg.

From ChEMBL document CHEMBL3526083, “Prediction of relative in vivo metabolite exposure from in vitro data using two model drugs: dextromethorphan and omeprazole” (Drug Metab Dispos, 2012)
